Reference: patent publication US9381171B2 (priority 2013, dated 2016)

What was measured:
Atrogin-1 = Atrogin-1 protein level by western blot in C2C12 cells (FIG. 5B); format: cell-based, mouse; conditions: C2C12, 0.1, 1 or 20 μM dapsone and 1 μM dexamethasone; concentration-dependent
Description: (§1) A C2C12 cell line (mouse gastrocnemius muscle, ATCC®CRL-1772™) was inoculated in a 10% FBS/DMEM culture medium in a 60 mm culture dish. When the cells were grown to about 70% confluency in a 5% CO2 incubator at a temperature of 37° C., the culture medium was changed to a 2% FBS/DMEM culture medium to allow complete differentiation after incubation for 4 days. The C2C12 cell line is a mouse myoblast cell line obtained through continuous culture of myoblasts that are cultured from the gastrocnemius muscle of C3H mice. […] Here, 1 μM of dexamethasone was added thereto and cultured together for 24 hours as described above.
(§2) After the medium was removed from the culture and the cells were collected therefrom, 500 μl of an RIPA lysis buffer was added for lysing the cells. Then, the resulting lysates were subjected to electrophoresis and western blot analysis with respect to Atrogin-1, MuRF-1, and α-tubulin. A primary antibody used in the western blot analysis was a rabbit anti-Atrogin-1 antibody (ECM Bioscience), a MuRF-1 antibody (GeneTax), and α-tubulin (Cell Signaling Technology, USA) antibody, and a secondary antibody used in the western blot analysis was an HRP-conjugated anti-rabbit antibody (Jackson ImmunoResearch).

[1] = tested on: phosphorylated Akt-p (Ser473); test: Factors of atrophy: western blot of Akt-p in C2C12 cells (FIG. 4); format: cell-based, mouse; conditions: C2C12, 0.1, 1, 20 μM dapsone 12 hours, then 1 μM dexamethasone 2 hours; concentration-dependent
Description: as §1, with “2” for “24”
(§3) After the medium was removed from the culture and the cells were collected therefrom, 500 μl of an RIPA lysis buffer (including 20 mM Tris-HCl (pH 7.5), 150 mM NaCl, 1 mM Na2EDTA, 1 mM EGTA, 1% NP-40, 1% sodium deoxycholate, 2.5 mM sodium pyrophosphate, 1 mM beta-glycerophosphate, 1 mM Na3VO4, and 1 μg/ml leupeptin) was added for lysing the cells. […]

Atrogin-1 mRNA = Atrogin-1 mRNA level by real time PCR in C2C12 cells (FIG. 5A); format: cell-based, mouse; conditions: C2C12, 20 μM dapsone and 1 μM dexamethasone, 24 hours; normalized to GAPDH mRNA
Description: (§4) Here, 1 μM of dexamethasone was added thereto and incubated for 24 hours. Then, the amounts of the expressed mRNA of the Atrogin-1 and MuRF-1 among the C2C12 cells were confirmed. Here, the complete RNA was separated by using a Trizol reagent (Invitrogen). The analysis of the mRNAs of Atrogin-1 and MuRF-1 was performed by using a real time […] instrument, BioRad), which is a device for measuring reverse transcription and SYBR Green. The resulting amounts then normalize to the amount of GAPDH mRNA. The amplification of Atrogin-1, MuRF-1, and GAPDH mRNAs was performed by using an oligonucleotide primer set of SEQ ID NOS: 1 and 2, an oligonucleotide primer set of SEQ ID NOS: 3 and 4, and an oligonucleotide primer set of SEQ ID NOS: 5 and 6.

MURF-1 = test: MuRF-1 protein level by western blot in C2C12 cells (FIG. 5B); format: cell-based, mouse; conditions: C2C12, 0.1, 1 or 20 μM dapsone and 1 μM dexamethasone; concentration-dependent
Description: as §1, §2

MURF-1 mRNA = test: MuRF-1 mRNA level by real time PCR in C2C12 cells (FIG. 5A); format: cell-based, mouse; conditions: C2C12, 20 μM dapsone and 1 μM dexamethasone, 24 hours; normalized to GAPDH mRNA
Description: as §4

[2] = tested on: SOL muscle of the hind-limb of a mouse; conditions: mouse fed 4 mg/kg dexamethasone and 2 mg/kg dapsone for 3 weeks, 0.2 Hz (100 V)
Description: (§5) The SOL muscle was separated from a female mouse (which weighs about 20 g) aged about 3 months. The mouse was anesthetized by sodium pentobarbital injection (100 mg/kg body weight). The SOL muscle, which is a type I muscle, was separated by paying attention to each hind-limb of the mouse while maintaining ligaments from both hind-limbs without damaging the SOL muscle. Then, the separated SOL muscle was put in an oxygen-treated Ringer's solution (118 mM NaCl, 4.75 mM KCl, 2.5 mM CaCl2, 1.18 mM MgSO4, 1.18 mM NaH2PO4, 24.8 mM NaHCO3, 10 mM glucose, and 0.02 g/l tubocurarine chloride, 25° C., pH 7.4) (Sigma Aldrich), set, and stabilized. One side of the separated SOL muscle was filled with the Ringer's solution to fix the separated SOL muscle on a tissue bath with smooth oxygen supply while the other side of the separated SOL muscle was fixed on a FT03 isometric force transducer (Grass Instruments, West Warwick, USA). Here, the muscle twitching was adjusted according to the intensity of the electric field stimulation. […] Here, the muscle contractility value (mN) represents the muscle twitch contraction.

[3] = tested on: SOL muscle of the hind-limb of a mouse; test: Muscle fatigability of SOL muscle separated from fed mice (FIG. 7); format: in vivo; conditions: 150 Hz, 100 V, stimulation every 2 seconds for 30 seconds
Description: as §5

[4] = tested on: phosphorylated FOXO1-p (Ser256); test: Factors of atrophy: western blot of FOXO1-p in C2C12 cells (FIG. 4); format: cell-based, mouse; conditions: C2C12, 0.1, 1, 20 μM dapsone 12 hours, then 1 μM dexamethasone 2 hours
Description: as §1, with “2” for “24”
as §3

SMILES | protein level of Atrogin-1 (Atrogin-1) | amount of the Akt-p [1] | mRNA level of Atrogin-1 (Atrogin-1 mRNA) | protein level of MURF-1 (MURF-1) | mRNA level of MURF-1 (MURF-1 mRNA) | increase of twitch contractility compared with mouse fed on dexamethasone [2] [%] | decrease of muscle fatigability compared with intake of only dexamethasone ([3]; intake of both dexamethasone and dapsone) [%] | amount of the FOXO1-p protein [4] | degree of the muscle fatigability ([3]; upon intake of dexamethasone)
Nc1ccc(S(=O)(=O)c2ccc(N)cc2)cc1 [dapsone, 4-[(4-aminobenzene)sulfonyl]aniline] | significantly decreased | increased | significantly decreased | significantly decreased | significantly decreased | 43.7 | 20.3 | decreased | 
C[C@@H]1C[C@H]2[C@@H]3CCC4=CC(=O)C=C[C@]4(C)[C@@]3(F)[C@@H](O)C[C@]2(C)[C@@]1(O)C(=O)CO [dexamethasone] |  |  |  |  |  |  |  |  | increased
